Structures are written as SMILES. Some results are limits rather than exact numbers.

Sequence of Full-length human PIM-1 (P11309 whole entry): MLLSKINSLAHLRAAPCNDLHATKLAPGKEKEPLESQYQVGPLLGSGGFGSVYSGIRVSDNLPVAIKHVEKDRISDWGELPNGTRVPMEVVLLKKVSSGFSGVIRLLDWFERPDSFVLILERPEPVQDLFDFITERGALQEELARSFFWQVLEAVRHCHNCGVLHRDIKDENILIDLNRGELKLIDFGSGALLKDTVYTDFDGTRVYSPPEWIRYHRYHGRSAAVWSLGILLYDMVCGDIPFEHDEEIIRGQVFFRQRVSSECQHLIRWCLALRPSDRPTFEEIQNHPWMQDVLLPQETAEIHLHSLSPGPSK

This assay addresses Full-length human PIM-1 (Homo sapiens, UniProt P11309). Conditions: read-out: PIM-1 IC50; ATP 200 μM, Aktide 25 μM, enzyme 1 nM.
Method: Biochemical Assay for Inhibitors of PIM-1 Kinase Activity
The inhibitory activity of putative kinase inhibitors and the potency of selected compounds were determined using a trans-phosphorylation assay.
Specific peptide or protein substrates are trans-phosphorylated by their specific ser-thr or tyr kinase in the presence of ATP traced with ^33P-γ-ATP, and in the presence of their own optimal buffer and cofactors.
At the end of the phosphorylation reaction, more than 98% unlabeled ATP and radioactive ATP is captured by an excess of the ion exchange dowex resin; the resin then settles down to the bottom of the reaction plate by gravity.
Supernatant is subsequently withdrawn and transferred into a counting plate, then evaluated by β-counting.
The buffer for PIM-1 assay was composed of HEPES 50 mM, at pH 7.5, with 10 mM MgCl2, 1 mM DTT, 3 μM NaVO3, and 0.2 mg/ml BSA
ATP concentration: 200 μM
Enzyme concentration: 1 nM
The test mix consisted of:
1) 3× Enzyme mix (done in Kinase Buffer 3×), 5 μL/well
2) 3× substrate and ATP mix (done in ddH2O), together with ^33P-γ-ATP, 5 μL/well
3) 3× test compounds (diluted into ddH2O-3% DMSO)-5 μL/well
a) for percent inhibition studies (HTS), individual dilution plates at 1 mM are diluted at a 3× concentration (30 μM) in ddH2O (3% DMSO=final concentration) using a Beckman NX automated pipetting platform. The same instrument is used for distributing the diluted mother plates into the test plates.
An automated station for serial dilutions (Biomek FX, Beckman) is used for producing 1:3 dilutions in 100% DMSO, from line A1 to A10, and for all the seven compounds in the column.
At the start of the run, the robot aspirates 5 μL of ATP mix, makes an air gap inside the tips (2 μL) and aspirates 2 μL of PIM mix. The following dispensation into the plates allows the kinase reaction to start upon 3 cycles of mixing, done by the robot itself.
The robot incubates the plates for 60 minutes at room temperature, and then stops the reaction by pipetting 70 μL of dowex resin suspension into the reaction mix. Three cycles of mixing are done immediately after the addition of the resin.
Another mixing cycle is performed after all the plates are stopped, this time using normal tips: the plates are then allowed to rest for about one hour in order to maximize ATP capture.
Data are analysed by an internally customized version of the SW package “Assay Explorer” that provides either % inhibition for primary assays or sigmoidal fittings of the ten-dilutions curves for IC50 determination in the secondary assays/hit confirmation routines.
Turning to `O=C(C[C@H]1CNC(=O)c2cc(-c3cccc(C(F)(F)F)c3)cn21)N[C@H](CO)C1CCCCC1` [A133-M-B61 isomer S], the IC50 (commonly the concentration needed to halve the response being measured) was determined as 70 nM. As to `O=C(CC1CNC(=O)c2cc(-c3ccccc3F)cn21)NCc1ccncc1` (stereo not drawn) [Compound A128-M-B39], the IC50 was 540 nM. Regarding `O=C(CC1CNC(=O)c2cc(-c3cccc(Cl)c3)cn21)NCCN1CCOCC1` (stereo not drawn) [Compound A150-M-B38], the IC50 came to 1060 nM. As for `O=C(C[C@H]1CNC(=O)c2cc(-c3cccc(F)c3)cn21)N[C@H](CO)C1CCCCC1` [A127-M-B61 isomer S], the IC50 was found to be 20 nM. On to `COC(=O)c1cccc(-c2cc3n(c2)C(CC(=O)NCc2ccccc2)CNC3=O)c1` (stereo not drawn) [Compound A142-M-B14], for which the IC50 was 4830 nM. With `O=C(C[C@@H]1CNC(=O)c2cc(-c3ccnc(F)c3)cn21)N[C@H](CO)c1ccccc1` [A157-M-B62 isomer R] the figure was 1140 nM. Take `O=C(CC1CNC(=O)c2cc(-c3cn[nH]c3)cn21)NCc1ccc(F)cc1` (stereo not drawn) [Compound A144-M-B30]: the IC50 amounted to 1100 nM. For `O=C(CC1CNC(=O)c2cc(-c3cccc(F)c3)cn21)NCc1ccccc1` (stereo not drawn) [Compound A127-M-B14], the IC50 was determined as 180 nM.

As to `NC[C@@H](NC(=O)C[C@H]1CNC(=O)c2cc(-c3cccc(F)c3)cn21)c1ccccc1` [A127-M-B65 isomer S], the IC50 worked out at 10 nM.

For `NC[C@@H](NC(=O)C[C@H]1CNC(=O)c2cc(-c3cccc(C(F)(F)F)c3)cn21)c1ccccc1` [A133-M-B65 isomer S], the concentration for half-maximal inhibition (IC50) is 50 nM. With `O=C(CC1CNC(=O)c2cc(-c3ccsc3)cn21)NCC1CCCCC1` (stereo not drawn) [Compound A33-M-B22] the figure was 460 nM; with `O=C(CC1CNC(=O)c2cc(-c3ccccc3F)cn21)NCc1ccccc1` (stereo not drawn) [Compound A128-M-B14], 200 nM; with `COC(=O)c1cccc(-c2cc3n(c2)C(CC(=O)NCc2cccc(F)c2)CNC3=O)c1` (stereo not drawn) [Compound A142-M-B30], 2520 nM. With `O=C(C[C@@H]1CNC(=O)c2cc(-c3cccc(C(F)(F)F)c3)cn21)N[C@H](CO)C1CCCCC1` [A133-M-B61 isomer R] the figure was 5940 nM; with `O=C(CC1CNC(=O)c2cc(-c3ccccc3F)cn21)NCC1CCCCC1` (stereo not drawn) [Compound A128-M-B22], 120 nM. In the case of `O=C(CC1CNC(=O)c2cc(-c3ccc(F)c(F)c3)cn21)NCC1CCCCC1` (stereo not drawn) [Compound A139-M-B22] it was 90 nM; in that of `O=C(C[C@@H]1CNC(=O)c2cc(-c3cccc(F)c3)cn21)N[C@H](CO)Cc1ccccc1` [A127-M-B64 isomer R], 2910 nM; in that of `CC(C)(C)NC(=O)CC1CNC(=O)c2cc(-c3cccc(Cl)c3)cn21` (stereo not drawn) [Compound A150-M-B43], 790 nM. As to `O=C(CC1CNC(=O)c2cc(-c3ccc(F)cc3)cn21)NCC1CCCCC1` (stereo not drawn) [Compound A129-M-B22], the IC50 is 130 nM.

`O=C(CC1CNC(=O)c2cc(-c3ccc(F)cc3F)cn21)NCc1ccncc1` (stereo not drawn) [Compound A151-M-B39]: the IC50 turned out to be 4110 nM.

Consider `O=C(CC1CNC(=O)c2cc(-c3ccccc3F)cn21)NCc1ccco1` (stereo not drawn) [Compound A128-M-B40], for which the IC50 came to 250 nM. Regarding `O=C(CC1CNC(=O)c2cc(-c3cccc(OC(F)(F)F)c3)cn21)NCc1ccccc1` (stereo not drawn) [Compound A134-M-B14], the IC50 was found to be 720 nM. On to `O=C(CC1CNC(=O)c2cc(-c3cccc(F)c3)cn21)NCc1ccncc1` (stereo not drawn) [Compound A127-M-B39], for which the IC50 was 570 nM. Take `CCCNC(=O)CC1CNC(=O)c2cc(-c3cccc(Cl)c3)cn21` (stereo not drawn) [Compound A150-M-B25]: the IC50 was 450 nM. In the case of `CN1CCN(C(=O)CC2CNC(=O)c3cc(-c4cccc(F)c4)cn32)C(c2ccccc2)C1` (mixture of isomers) [Compound A127-M-B63] it was 390 nM; in that of `O=C(C[C@@H]1CNC(=O)c2cc(-c3cccc(C(F)(F)F)c3)cn21)N[C@H](CO)Cc1ccccc1` [A133-M-B64 isomer R], 2040 nM; in that of `O=C(CC1CNC(=O)c2cc(-c3cccc(Cl)c3)cn21)NCC1CC1` (stereo not drawn) [Compound A150-M-B48], 120 nM. Consider `O=C(C[C@@H]1CNC(=O)c2cc(-c3ccnc(F)c3)cn21)N[C@H](CO)Cc1ccccc1` [A157-M-B64 isomer R], for which the IC50 was 700 nM.

As to `O=C(CC1CNC(=O)c2cc(-c3cn[nH]c3)cn21)NCC1CCCCC1` (stereo not drawn) [Compound A144-M-B22], the IC50 was 480 nM. For `O=C(C[C@@H]1CNC(=O)c2cc(-c3cc(F)ccc3F)cn21)N[C@H](CO)c1ccccc1` [A158-M-B62 isomer R], the IC50 was found to be 550 nM.

Consider `CN1CCN(C(=O)CC2CNC(=O)c3cc(-c4cc(F)ccc4F)cn32)C(c2ccccc2)C1` (mixture of isomers) [Compound A158-M-B63], for which the IC50 was found to be 400 nM. For the molecule `O=C(CC1CNC(=O)c2cc(-c3cccc(C(F)(F)F)c3)cn21)NCC1CCCCC1` (stereo not drawn) [Compound A133-M-B22], the IC50 turned out to be 380 nM. In the case of `O=C(CC1CNC(=O)c2cc(-c3cccc(Cl)c3)cn21)NC1CCCCC1` (stereo not drawn) [Compound A150-M-B24] it was 210 nM; in that of `O=C(CC1CNC(=O)c2cc(-c3ccc(F)cc3F)cn21)NCc1ccccc1` (stereo not drawn) [Compound A151-M-B14], 100 nM; in that of `O=C(CC1CNC(=O)c2cc(-c3ccsc3)cn21)NCc1cccc(F)c1` (stereo not drawn) [Compound A33-M-B30], 580 nM. In the case of `O=C(C[C@H]1CNC(=O)c2cc(-c3cccc(F)c3)cn21)N[C@H](CO)c1ccccc1` [A127-M-B62 isomer S] it was 90 nM; in that of `O=C(CC1CNC(=O)c2cc(-c3cccc(F)c3)cn21)NCc1cccc(F)c1` (stereo not drawn) [Compound A127-M-B30], 190 nM; in that of `CC(C)CCNC(=O)CC1CNC(=O)c2cc(-c3cccc(Cl)c3)cn21` (stereo not drawn) [Compound A150-M-B32], 230 nM.

Regarding `CC(C)CCNC(=O)CC1CNC(=O)c2cc(-c3cccc(F)c3)cn21` (stereo not drawn) [Compound A127-M-B32], the IC50 is 610 nM. With `O=C(CC1CNC(=O)c2cc(-c3cn[nH]c3)cn21)NCc1ccccc1` (stereo not drawn) [Compound A144-M-B14] the figure was no less than 10000 nM. With `CN1CCN(C(=O)CC2CNC(=O)c3cc(-c4cccc(C(F)(F)F)c4)cn32)C(c2ccccc2)C1` (mixture of isomers) [Compound A133-M-B63] the figure was 2540 nM; with `CN1CCN(C(=O)CC2CNC(=O)c3cc(-c4ccnc(F)c4)cn32)C(c2ccccc2)C1` (mixture of isomers) [Compound A157-M-B63], 690 nM; with `COCCCNC(=O)CC1CNC(=O)c2cc(-c3cccc(Cl)c3)cn21` (stereo not drawn) [Compound A150-M-B42], 590 nM.

Turning to `C=CCN1CCN(C(=O)CC2CNC(=O)c3cc(-c4cccc(Cl)c4)cn32)CC1` (stereo not drawn) [Compound A150-M-B49], the IC50 turned out to be 230 nM. Consider `O=C(CC1CNC(=O)c2cc(-c3cccc(Cl)c3)cn21)NC1CCCC1` (stereo not drawn) [Compound A150-M-B26], for which the IC50 came out at 240 nM. In the case of `O=C(CC1CNC(=O)c2cc(-c3cccc(C(F)(F)F)c3)cn21)NCc1ccc(F)cc1` (stereo not drawn) [Compound A133-M-B30] it was 610 nM; in that of `O=C(CC1CNC(=O)c2cc(-c3cccc(OC(F)(F)F)c3)cn21)NCc1cccc(F)c1` (stereo not drawn) [Compound A134-M-B30], 890 nM; in that of `CC(C)CCNC(=O)CC1CNC(=O)c2cc(-c3ccc(F)cc3F)cn21` (stereo not drawn) [Compound A151-M-B32], 490 nM. In the case of `O=C(CC1CNC(=O)c2cc(-c3cccc(Cl)c3)cn21)NCc1ccccc1` (stereo not drawn) [Compound A150-M-B14] it was 140 nM. Turning to `O=C(CC1CNC(=O)c2cc(-c3ccc(F)c(F)c3)cn21)NCc1ccco1` (stereo not drawn) [Compound A139-M-B40], the IC50 is 130 nM. Turning to `Cc1ccccc1NC(=O)CC1CNC(=O)c2cc(-c3cccc(Cl)c3)cn21` (stereo not drawn) [Compound A150-M-B36], the IC50 came out at 1390 nM.

For `O=C(CC1CNC(=O)c2cc(-c3ccc(F)c(F)c3)cn21)NCc1ccccc1` (stereo not drawn) [Compound A139-M-B14], the IC50 was found to be 220 nM. With `O=C(CC1CNC(=O)c2cc(-c3ccc(F)c(F)c3)cn21)NCc1ccc(F)cc1` (stereo not drawn) [Compound A139-M-B30] the figure was 410 nM; with `O=C(CC1CNC(=O)c2cc(-c3cccc(C(F)(F)F)c3)cn21)NCc1ccccc1` (stereo not drawn) [Compound A133-M-B14], 810 nM. Regarding `O=C(CC1CNC(=O)c2cc(-c3ccc4c(c3)OCO4)cn21)NCC1CCCCC1` (stereo not drawn) [Compound A132-M-B22], the 50% inhibitory concentration (IC50) was 360 nM. With `O=C(C[C@@H]1CNC(=O)c2cc(-c3cccc(C(F)(F)F)c3)cn21)N[C@H](CO)c1ccccc1` [A133-M-B62 isomer R] the figure was 4830 nM; with `NCC(NC(=O)CC1CNC(=O)c2cc(-c3cc(F)ccc3F)cn21)c1ccccc1` (stereo not drawn) [A158-M-B65 isomer S], 30 nM; with `CC(C)CCNC(=O)CC1CNC(=O)c2cc(-c3ccccc3F)cn21` (stereo not drawn) [Compound A128-M-B32], 700 nM. With `O=C(C[C@@H]1CNC(=O)c2cc(-c3cc(F)ccc3F)cn21)N[C@H](CO)C1CCCCC1` [A158-M-B61 isomer R] the figure was 860 nM. With `O=C(C[C@H]1CNC(=O)c2cc(-c3cccc(C(F)(F)F)c3)cn21)N[C@H](CO)c1ccccc1` [A133-M-B62 isomer S] the figure was 130 nM; with `O=C(CC1CNC(=O)c2cc(-c3ccc(F)c(F)c3)cn21)NCc1ccncc1` (stereo not drawn) [Compound A139-M-B39], 980 nM. On to `O=C(CC1CNC(=O)c2cc(-c3cccc(Cl)c3)cn21)Nc1ccccc1` (stereo not drawn) [Compound A150-M-B52], for which the IC50 is 430 nM.

Regarding `O=C(CC1CNC(=O)c2cc(-c3ccccc3F)cn21)NCc1cccc(F)c1` (stereo not drawn) [Compound A128-M-B30], the IC50 is 270 nM.

With `O=C(C[C@@H]1CNC(=O)c2cc(-c3ccnc(F)c3)cn21)N[C@H](CO)C1CCCCC1` [A157-M-B61 isomer R], the IC50 worked out at 270 nM.

As to `O=C(CC1CNC(=O)c2cc(-c3cccc(Cl)c3)cn21)NCc1ccncc1` (stereo not drawn) [Compound A150-M-B39], the IC50 amounted to 220 nM. In the case of `O=C1NCC(CC(=O)N2CCCCCC2)n2cc(-c3cccc(Cl)c3)cc21` (stereo not drawn) [Compound A150-M-B45] it was 580 nM.

These data come from US8981092B2, “Substituted 3,4-dihydro-2H-pyrrolo[1,2-a]pyrazin-1-ones as modulators of protein kinase activity” (Nerviano Medical Sciences S.r.l., priority 2008, dated 2015).
